According to patent US20120316203A1, “Compositions and Methods for Inhibition of Cancers” (THE OHIO STATE UNIVERSITY RESEARCH FOUNDATION, priority 2009, published 2012):

Tests used:
A2780 cells = test: Cell viability by MTT assay, A2780 cells; format: cell-based, human; conditions: 24 hours, dose series
Protocol: (§1) Cell viability was determined by a colorimetric assay using MTT. In the mitochondria of living cells, yellow MTT undergoes a reductive conversion to formazan, producing a purple color. Cells, grown to […] confluence in 75-mm flasks, were trypsinized, counted, seeded in 96-well plates with an average population of 7,000 cells per well, incubated overnight, and then treated with curcumin, H-4073, or HO-3867 for 24 hours. All experiments were done using eight replicates and, repeated at least thrice.

[1] = system: A2780R, PA-1, SKOV3, OV4, and OVCAR3 human ovarian cancer cell lines; test: Cell viability by MTT assay, other ovarian cancer cell lines; format: cell-based; conditions: 10 μmol/L; 24 h
Protocol: as §1

[2] = system: A2780R, SKOV3, OV4, and OVCAR3 cells; test: Western blot of apoptosis and JAK/STAT3 in four additional ovarian cancer cell lines; format: cell-based, human; conditions: 10 μmol/L, 24 hours, all four cell lines
Protocol: Cells in RPMI 1640 were treated with DMSO (control) or HO-3867 (10 μmol/L) for 24 hours. Equal volumes of DMSO (0.1% v/v) were present in each treatment. Following treatment, the cell lysates were prepared in non-denaturing lysis buffer containing 10 mmol/L Tris-HCl (pH 7.4), 150 mmol/L NaCl, 1% Triton X-100, 1 mmol/L EDTA, 1 mmol/L EGTA, 0.3 mmol/L phenylmethyl-sulfonyl fluoride, 0.2 mmol/L sodium orthovanadate, 0.5% NP40, 1 μg/mL aprotinin, and 1 μg/mL leupetin. The lysates were centrifuged at 10,000×g for 20 minutes at 4° C. and the supernatant was separated. The protein concentration in the lysates was determined using a Pierce detergent-compatible protein assay kit. For Western blotting, 25 to 50 μg of protein lysate per sample were denatured in 2×SDS-PAGE sample buffer and subjected to SDS-PAGE on a 10% tris-glycine gel. The separated proteins were transferred to a polyvinylidene fluoride membrane and were blocked with 5% nonfat milk powder (w/v) in TBST (10 mmol/L Tris, 10 mmol/L NaCl, 0.1% Tween 20) for 1 hour at room temperature or overnight at 4° C. […] The bound antibodies were detected with horseradish peroxidase-labeled sheep anti-mouse IgG or horseradish peroxidase-labeled donkey anti-rabbit IgG using an enhanced chemiluminescence detection system (ECL Advanced kit). Protein expressions were determined using the Image Gauge v. […]

[3] = system: hOSE cells, HSMC, and HAEC; test: Cytotoxicity of DAPs to noncancerous cells (MTT); format: cell-based, human
Protocol: Cell viability was determined by a colorimetric assay using MTT. In the mitochondria of living cells, yellow MTT undergoes a reductive conversion to formazan, giving a purple color. Cells, grown to […] confluence in 75-mm flasks, were trypsinized, counted, seeded in 96-well plates with an average population of 7000 cells/well, incubated overnight, and then treated with the DAPs (H-4073, HO-3867, H4318, or HO-4200; […]) for 24 h. All experiments were done using eight replicates and repeated at least three times. Cell viability was expressed as the percentage of MIT viability of untreated cells.

HSMC = test: Intracellular ROS by DCF fluorescence, HSMC; format: cell-based, human; conditions: 10 μM, 12 h
Protocol: The ROS levels in cells treated with DAPs were determined using H2DCF-DA, a membrane-permeative fluorogenic probe. The acetate and acetoxymethyl ester groups of this probe are enzymatically cleaved inside living cells. The probe can then be oxidized by intracellular oxidants (ROS) to give a product, DCF, which emits a strong, green fluorescence (λex=504 nm; λem=529 nm). The fluorescence intensity is proportional to the level of cellular oxidants. […] The cells were further incubated in the dark for 20 min and washed with protein-free medium, and then fluorescence images were immediately captured with a Nikon Eclipse TE2000-U camera system using excitation/emission at 495/520 nm. The captured images were then analyzed using MetaMorph image analysis software.

[4] = system: A2780 xenograft tumor tissues; test: FAS/FAK and VEGF levels in xenograft tumor tissues (immunoblot, immunohistochemistry); format: in vivo, BALB/c nude mice
Protocol: A2780 cells (5×10^6 cells in 60 μl of PBS) were subcutaneously (s.c.) injected into the back of 6-week-old BALB/c nude mice from the National Cancer Institute. On the 5th day when the tumor size reached approximately 2 to 4 mm, the control groups was supplemented a normal diet (no treatment) while the experimental groups were treated using the DAP compounds mixed with the animal feed ([…]). The doses were chosen based on an initial dose-response study optimized to produce an observable effect on tumor growth. The tumor tissues were then subjected to immunoblotting and immunohistochemistry.
Tumor tissues were fixed in formalin and embedded in paraffin. Sections (6-μm thick) were obtained and used for hematoxylin and eosin staining. For immunofluorescence staining, the tissue sections (8-μm thick) were serially rehydrated in 100%, 95%, and 80% ethanol after deparaffinization with xylene. Slides were kept in steam for 30 min and then washed in PBS (pH 7.4) three times for 5 min each. Tissue sections were incubated with 2% goat serum and 5% bovine serum albumin in PBS to reduce nonspecific binding. The sections were then incubated for 4 h with an anti-mouse anti-FAS, or anti-VEGF. The sections were then incubated with secondary antibodies (1:1000 dilutions) conjugated to horseradish peroxidase (HRP)-labeled sheep anti-mouse IgG or HRP-labeled donkey anti-rabbit IgG (Amersham Pharmacia Biotech). The tissue slides were visualized using a Nikon fluorescence microscope.

[5] = 50 or 100 ppm in feed, dose-dependent

CC1(C)C=C(CN2C/C(=C\c3ccc(F)cc3)C(=O)/C(=C/c3ccc(F)cc3)C2)C(C)(C)N1O [HO-3867, 1-[(1-oxyl-2,2,5,5-tetramethyl-2,5-dihydro-1H-pyrrol-3-yl)methyl]-(3E,5E)-3,5-bis(4-fluorobenzylidene)piperidin-4-one]
cytotoxicity, viability of A2780 cells (A2780 cells): significantly higher toxicity when compared with curcumin
cytotoxicity in other human ovarian cancer cell lines [1]: equally and significantly toxic
caspase-3 and PARP cleavage [2]: clearly showed caspase-3 and PARP cleavage
expression levels of pSTAT3 and JAK1 [2]: decrease
cell viability of noncancerous (healthy) human cell lines ([3]; 10 NM, 24-h incubation): significantly less toxic
viability of hOSE cells ([3]; same dose for both compounds): very little effect
amounts of ROS in HSMC compared to A2780 cells (HSMC): significantly lower amounts of ROS
intracellular ROS generation (DCF fluorescence) in HSMC (HSMC): not significantly different from that of the untreated cells
SREBP1, MMP-2, and VEGF in xenografted tumor tissues [4, 5]: clear down-regulation
expression of FAS and FAK in xenografted tumor tissues [4, 5]: decreased expression
protein levels of FAS and VEGF by immunocytochemistry in tumor-bearing mice ([4]; mouse, in vivo): significantly inhibited
